One block for each compound: values may come before it.
Experiments:
oestrogen receptor = target: T1, oestrogen receptor (Bos taurus, UniProt P49884); assay: Relative bonding affinity to the oestrogen receptor (competition with 3H-17β-Estradiol); format: binding, calf; details: for RBA* (relative bonding affinity to the oestrogen receptor): calves' uteri, in relation to 17β-estradiol = 100
T1 construct: oestrogen receptor of a calf's uterus; from tissue; host or cells: calf uterus
T1 sequence (P49884 1-596): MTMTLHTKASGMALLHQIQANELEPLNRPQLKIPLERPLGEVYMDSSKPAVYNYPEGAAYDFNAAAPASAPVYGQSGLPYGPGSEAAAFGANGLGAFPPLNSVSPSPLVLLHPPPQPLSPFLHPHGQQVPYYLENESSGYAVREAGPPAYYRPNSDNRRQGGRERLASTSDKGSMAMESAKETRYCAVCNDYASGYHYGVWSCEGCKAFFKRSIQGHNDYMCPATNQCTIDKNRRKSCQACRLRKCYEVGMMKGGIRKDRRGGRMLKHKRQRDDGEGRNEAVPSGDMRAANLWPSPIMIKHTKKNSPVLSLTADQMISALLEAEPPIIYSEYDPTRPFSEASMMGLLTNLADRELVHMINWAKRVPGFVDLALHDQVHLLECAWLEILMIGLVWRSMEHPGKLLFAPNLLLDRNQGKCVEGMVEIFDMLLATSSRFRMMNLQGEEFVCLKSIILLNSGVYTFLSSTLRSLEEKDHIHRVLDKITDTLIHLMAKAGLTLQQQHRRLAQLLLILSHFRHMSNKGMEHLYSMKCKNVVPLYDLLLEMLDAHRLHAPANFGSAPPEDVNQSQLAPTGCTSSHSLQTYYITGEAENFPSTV
Excerpt: The test methodology is described in Cancer Treatment Reviews 1984, 11, 147.
*Relative bonding affinities to the oestrogen receptor of calves' uteri,
in relation to 17β-estradiol = 100

[1] = test system: human MCF-7 mamma carcinoma cells; assay: Effect on cell growth of MCF-7 cells; format: cell-based; details: for activity at 10 µM / activity at 1 µM / activity at 0.1 µM / activity at 5 µM: Homo sapiens, MCF7, mean of 16 individual results, read-out: T/C (corrected); for activity at 10 µM: 1 × 10^-5 M; for activity at 1 µM: 1 × 10^-6 M; for activity at 0.1 µM: 1 × 10^-7 M; for activity at 5 µM: 5 × 10^-6 M
Description: Data given as corrected T/C values (%).
^a Inhibiting effect on MCF7 cells: quotient of optical densities fro
standard deviation through error reckoning according to GAUSS.
^b Substance concentration (mol/1) in incubation medium.
^c Significant p < 0.01 in relation to control group (C).

uterus of infantile mice [2] = assay: Anti-uterotrophic test (in-vivo test on infantile mice); details: simultaneous 0.4 μg oestron/animal/day; for anti-uterotrophic test, effect: uterus dry weight (mg)/body weight (g) × 100
Description: (§1) The effectiveness of these compounds was found in an in-vivo test on infantile mice. This test is extensively described in Cancer Treatment Reviews 1984, 11, 147, and J. Med. Chem., 1984, 27, 1439.
(§2) ^a dosage/animal, administered s.c. on three consecutive days in oliv
(§3) ^b uterus dry weight (mg)/body weight (g) × 100, determined 24
(§4) hours after the final injection.
^c simultaneous administration of 0.4 μg oestron/animal/day.

uterus of infantile mice [3] = assay: Uterotrophic test (in-vivo test on infantile mice); details: uterus dry weight (mg)/body weight (g) × 100
Description: as §1, §2, §3, §4

[4] = 1 μg/animal s.c. on three consecutive days
[5] = 5 μg/animal s.c. on three consecutive days
[6] = 25 μg/animal s.c. on three consecutive days
[7] = 125 μg/animal s.c. on three consecutive days

SMILES: Cc1c(-c2ccc(O)cc2)oc2cc(O)ccc12 [Compound 61b, 6-hydroxy-2-(4-hydroxyphenyl)-3-methylbenzo[b]furan]
- RBA* (relative bonding affinity to the oestrogen receptor) (oestrogen receptor): 0,2

SMILES: CCc1c(-c2ccc(O)cc2)oc2cc(O)ccc12 [Compound 62b, 3-ethyl-6-hydroxy-2-(4-hydroxyphenyl)benzo[b]furan]
- anti-uterotrophic test, inhibition (uterus of infantile mice [2]; 125 μg/animal s.c.): 12%
- anti-uterotrophic test, effect (uterus of infantile mice [2]; 5 μg/animal s.c.): 60.3 ± 5.8 mg/g × 100
- anti-uterotrophic test, effect (uterus of infantile mice [2]; 25 μg/animal s.c.): 56.9 ± 7.1 mg/g × 100
- anti-uterotrophic test, effect (uterus of infantile mice [2]; 125 μg/animal s.c.): 49.8 ± 7.9 mg/g × 100
- uterotrophic test, effect (uterus of infantile mice [3]; [4]): 12.9 ± 2.5 mg/g × 100
- uterotrophic test, effect (uterus of infantile mice [3]; [5]): 14.5 ± 3.7 mg/g × 100
- uterotrophic test, effect (uterus of infantile mice [3]; [6]): 17.0 ± 3.3 mg/g × 100
- uterotrophic test, effect (uterus of infantile mice [3]; [7]): 18.3 ± 6.3 mg/g × 100
- RBA* (relative bonding affinity to the oestrogen receptor) (oestrogen receptor): 0,6

SMILES: Oc1ccc(-c2oc3ccc(O)cc3c2CCCCCCN2CCCCC2)cc1 [Compound 68a, 5-hydroxy-2-(4-hydroxyphenyl)-3-(6-N-piperidylhexyl)benzo[b]furan]
- anti-uterotrophic test, inhibition (uterus of infantile mice [2]; 5 μg/animal s.c.): 55%
- anti-uterotrophic test, inhibition (uterus of infantile mice [2]; 25 μg/animal s.c.): 56%
- anti-uterotrophic test, inhibition (uterus of infantile mice [2]; 125 μg/animal s.c.): 48%
- anti-uterotrophic test, effect (uterus of infantile mice [2]; 5 μg/animal s.c.): 38.1 ± 7.5 mg/g × 100
- anti-uterotrophic test, effect (uterus of infantile mice [2]; 25 μg/animal s.c.): 37.6 ± 6.2 mg/g × 100
- anti-uterotrophic test, effect (uterus of infantile mice [2]; 125 μg/animal s.c.): 41.8 ± 6.4 mg/g × 100
- uterotrophic test, effect (uterus of infantile mice [3]; [4]): 16.1 ± 2.1 mg/g × 100
- uterotrophic test, effect (uterus of infantile mice [3]; [5]): 17.3 ± 2.9 mg/g × 100
- uterotrophic test, effect (uterus of infantile mice [3]; [6]): 15.8 ± 1.9 mg/g × 100
- uterotrophic test, effect (uterus of infantile mice [3]; [7]): 17.3 ± 3.2 mg/g × 100
- RBA* (relative bonding affinity to the oestrogen receptor) (oestrogen receptor): 4,3
- effect on the growth of MCF-7 / hormone-dependent tumour cells, in words [1]: strongly inhibiting effect
- activity at 10 µM [1]: -9.9 ± 1.8%
- activity at 1 µM [1]: 51.6 ± 10.2%
- activity at 0.1 µM [1]: 64.4 ± 12%
- activity at 5 µM [1]: 10.4 ± 4.8%

SMILES: Oc1ccc(-c2oc3cc(O)ccc3c2CCCCCCN2CCCCC2)cc1 [Compound 68b, 6-hydroxy-2-(4-hydroxyphenyl)-3-(6-N-piperidylhexyl)benzo[b]furan]
- anti-uterotrophic test, inhibition (uterus of infantile mice [2]; 5 μg/animal s.c.): 10%
- anti-uterotrophic test, inhibition (uterus of infantile mice [2]; 25 μg/animal s.c.): 7%
- anti-uterotrophic test, effect (uterus of infantile mice [2]; 5 μg/animal s.c.): 58.6 ± 7.1 mg/g × 100
- anti-uterotrophic test, effect (uterus of infantile mice [2]; 25 μg/animal s.c.): 59.9 ± 6.6 mg/g × 100
- anti-uterotrophic test, effect (uterus of infantile mice [2]; 125 μg/animal s.c.): 68.7 ± 9.9 mg/g × 100
- uterotrophic test, effect (uterus of infantile mice [3]; [4]): 18.3 ± 1.9 mg/g × 100
- uterotrophic test, effect (uterus of infantile mice [3]; [5]): 18.8 ± 3.0 mg/g × 100
- uterotrophic test, effect (uterus of infantile mice [3]; [6]): 24.4 ± 3.8 mg/g × 100
- uterotrophic test, effect (uterus of infantile mice [3]; [7]): 21.4 ± 3.7 mg/g × 100
- RBA* (relative bonding affinity to the oestrogen receptor) (oestrogen receptor): 5,4
- activity at 10 µM [1]: -9.6 ± 2.9%
- activity at 1 µM [1]: 42.9 ± 7.7%
- activity at 0.1 µM [1]: 58.7 ± 17.1%
- activity at 5 µM [1]: 12.1 ± 5.4%

SMILES: Cc1c(-c2ccc(O)cc2)sc2ccc(O)cc12 [Compound 102a, 5-hydroxy-2-(4-hydroxypheny)-3-methyibenxo[b]thiophen]
- anti-uterotrophic test, inhibition (uterus of infantile mice [2]; 5 μg/animal s.c.): 12%
- anti-uterotrophic test, inhibition (uterus of infantile mice [2]; 25 μg/animal s.c.): 68%
- anti-uterotrophic test, inhibition (uterus of infantile mice [2]; 125 μg/animal s.c.): 42%
- anti-uterotrophic test, effect (uterus of infantile mice [2]; 5 μg/animal s.c.): 42.4 ± 4.0 mg/g × 100
- anti-uterotrophic test, effect (uterus of infantile mice [2]; 25 μg/animal s.c.): 23.1 ± 3.8 mg/g × 100
- anti-uterotrophic test, effect (uterus of infantile mice [2]; 125 μg/animal s.c.): 32.2 ± 3.8 mg/g × 100
- uterotrophic test, effect (uterus of infantile mice [3]; [4]): 15.8 ± 2.1 mg/g × 100
- uterotrophic test, effect (uterus of infantile mice [3]; [5]): 20.8 ± 2.7 mg/g × 100
- uterotrophic test, effect (uterus of infantile mice [3]; [6]): 15.7 ± 2.3 mg/g × 100
- uterotrophic test, effect (uterus of infantile mice [3]; [7]): 18.5 ± 3.0 mg/g × 100
- affinity to the oestrogen (estradiol) receptor, in words (oestrogen receptor): greatest affinity in relation to estradiol
- RBA* (relative bonding affinity to the oestrogen receptor) (oestrogen receptor): 26,0
- effect on the growth of MCF-7 / hormone-dependent tumour cells, in words [1]: strongly inhibiting effect
- activity at 10 µM [1]: 14.7 ± 6.4%
- activity at 1 µM [1]: 87.4 ± 20%
- activity at 0.1 µM [1]: 71.3 ± 18.8%
- activity at 5 µM [1]: 48.5 ± 14.7%

SMILES: Cc1c(-c2ccc(O)cc2)sc2cc(O)ccc12 [Compound 102b, 6-hydroxy-2-(4-hydroxyphenyl)-3-methylbenzo[b]thiophen]
- anti-uterotrophic test, inhibition (uterus of infantile mice [2]; 5 μg/animal s.c.): 7%
- anti-uterotrophic test, inhibition (uterus of infantile mice [2]; 25 μg/animal s.c.): 30%
- anti-uterotrophic test, inhibition (uterus of infantile mice [2]; 125 μg/animal s.c.): 31%
- anti-uterotrophic test, effect (uterus of infantile mice [2]; 5 μg/animal s.c.): 47.0 ± 7.8 mg/g × 100
- anti-uterotrophic test, effect (uterus of infantile mice [2]; 25 μg/animal s.c.): 38.5 ± 3.7 mg/g × 100
- anti-uterotrophic test, effect (uterus of infantile mice [2]; 125 μg/animal s.c.): 38.1 ± 5.8 mg/g × 100
- uterotrophic test, effect (uterus of infantile mice [3]; [4]): 10.9 ± 2.1 mg/g × 100
- uterotrophic test, effect (uterus of infantile mice [3]; [5]): 12.1 ± 1.9 mg/g × 100
- uterotrophic test, effect (uterus of infantile mice [3]; [6]): 16.9 ± 2.9 mg/g × 100
- uterotrophic test, effect (uterus of infantile mice [3]; [7]): 21.9 ± 4.6 mg/g × 100
- RBA* (relative bonding affinity to the oestrogen receptor) (oestrogen receptor): 9,7
- effect on the growth of MCF-7 / hormone-dependent tumour cells, in words [1]: strongly inhibiting effect
- activity at 10 µM [1]: 10.9 ± 6.7%
- activity at 1 µM [1]: 133 ± 43.4%
- activity at 0.1 µM [1]: 125 ± 37.2%
- activity at 5 µM [1]: 54.9 ± 17.9%

SMILES: CC/C(=C(\c1ccccc1)c1ccc(OCCN(C)C)cc1)c1ccccc1 [Tam, Tamoxifen, reference compound]
- activity at 10 µM [1]: -5.7 ± 3.4%
- activity at 1 µM [1]: 59.1 ± 14.1%
- activity at 0.1 µM [1]: 56.5 ± 16.3%

Now from value to compound, other results behind:

- RBA* (relative bonding affinity to the oestrogen receptor) (oestrogen receptor): 2,0
SMILES: Cc1c(-c2ccc(O)cc2)oc2ccc(O)cc12 [Compound 61a]
- effect on the growth of MCF-7 / hormone-dependent tumour cells, in words [1]: strongly inhibiting effect
- activity at 10 µM [1]: 13.3 ± 5.3%
- activity at 1 µM [1]: 78.1 ± 17.2%
- activity at 0.1 µM [1]: 72.3 ± 18.2%
- activity at 5 µM [1]: 37.7 ± 11.9%

- RBA* (relative bonding affinity to the oestrogen receptor) (oestrogen receptor): 15,7
SMILES: CCc1c(-c2ccc(O)cc2)oc2ccc(O)cc12 [Compound 62a, 3-ethyl-5-hydroxy-2-(4-hydroxyphenyl)benzo[b]furan]
- anti-uterotrophic test, inhibition (uterus of infantile mice [2]; 5 μg/animal s.c.): 10%
- anti-uterotrophic test, inhibition (uterus of infantile mice [2]; 25 μg/animal s.c.): 22%
- anti-uterotrophic test, effect (uterus of infantile mice [2]; 1 μg/animal s.c.): 44.2 ± 7.8 mg/g × 100
- anti-uterotrophic test, effect (uterus of infantile mice [2]; 5 μg/animal s.c.): 39.1 ± 4.2 mg/g × 100
- anti-uterotrophic test, effect (uterus of infantile mice [2]; 25 μg/animal s.c.): 35.6 ± 2.6 mg/g × 100
- uterotrophic test, effect (uterus of infantile mice [3]; [4]): 10.5 ± 1.9 mg/g × 100
- uterotrophic test, effect (uterus of infantile mice [3]; [5]): 14.6 ± 2.4 mg/g × 100
- uterotrophic test, effect (uterus of infantile mice [3]; [6]): 19.0 ± 4.4 mg/g × 100
- affinity to the oestrogen (estradiol) receptor, in words (oestrogen receptor): greatest affinity in relation to estradiol
- effect on the growth of MCF-7 / hormone-dependent tumour cells, in words [1]: strongly inhibiting effect
- activity at 10 µM [1]: -0.2 ± 2.9%
- activity at 1 µM [1]: 49 ± 12.6%
- activity at 0.1 µM [1]: 65 ± 13.5%
- activity at 5 µM [1]: 0.3 ± 3.8%

- RBA* (relative bonding affinity to the oestrogen receptor) (oestrogen receptor): 20,0
SMILES: CCCc1c(-c2ccc(O)cc2)oc2ccc(O)cc12 [Compound 63a, 5-hydroxy-2-(4-hydroxyphenyl)-3-propylbenzo[b]furan]
- affinity to the oestrogen (estradiol) receptor, in words (oestrogen receptor): greatest affinity in relation to estradiol
- effect on the growth of MCF-7 / hormone-dependent tumour cells, in words [1]: strongly inhibiting effect
- activity at 10 µM [1]: -2.1 ± 2.8%
- activity at 1 µM [1]: 50.5 ± 8.8%
- activity at 0.1 µM [1]: 51 ± 11.3%
- activity at 5 µM [1]: -0.1 ± 3.6%

- RBA* (relative bonding affinity to the oestrogen receptor) (oestrogen receptor): 1,7
SMILES: CCCc1c(-c2ccc(O)cc2)oc2cc(O)ccc12 [Compound 63b, 6-hydroxy-2-(4-hydroxyphenyl)-3-propylbenzo[b]furan]

- RBA* (relative bonding affinity to the oestrogen receptor) (oestrogen receptor): 1,6
SMILES: CCCCc1c(-c2ccc(O)cc2)oc2ccc(O)cc12 [Compound 64a, 3-butyl-5-hydroxy-2-(4-hydroxyphenyl)benzo[b]furan]

- RBA* (relative bonding affinity to the oestrogen receptor) (oestrogen receptor): 0,6
SMILES: CCCCc1c(-c2ccc(O)cc2)oc2cc(O)ccc12 [Compound 64b, 3-butyl-6-hydroxy-2-(4-hydroxyphenyl)benzo[b]furan]
